From patent publication US20230263822A1, “MODULATION OF FACTOR 11 EXPRESSION” (Ionis Pharmaceuticals, Inc., priority 2008, published 2023)

Tests used:
human Factor 11 mRNA [1] = test: Dose-dependent inhibition of human Factor 11 in HepG2 cells, lipofectin 2.34-75 nM (Example 5); type: cell-based; settings: for percent inhibition of human Factor 11 mRNA relative to untreated control cells: ~16 hours
How it was run: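 Antisense oligonucleotides transfected with lipofectin at 2.34–75 nM into cells seeded at 10,000/well, treated ~16 h. Factor 11 mRNA quantified by real-time PCR (primer probe set RTS 2966), normalized to RIBOGREEN total RNA; percent inhibition relative to untreated cells.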

Factor 11 protein = Factor 11 protein in monkey plasma by sandwich ELISA (Example 46); type: in vivo, cynomolgus monkeys; settings: 25 mg/kg subcutaneously
How it was run: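 Monkeys (2 male, 2 female per group) dosed s.c. with antisense oligonucleotide at 25 mg/kg, three times weekly in week 1 then twice weekly through week 8; PBS controls. Plasma Factor 11 measured by sandwich ELISA (1:50 dilution, OPD, 490 nm); expressed as % reduction versus PBS.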

[2] = Tolerability in Sprague-Dawley rats: body weight and organ weight (Example 35); type: in vivo; settings: 50 mg/kg s.c. twice per week for 6 weeks
Excerpt: Urine samples were taken before the start of treatment.
The body weights are presented in Table 71 and are expressed as a percent change over the weights taken at the start of the study.

human Factor 11 mRNA [3] = test: Dose-dependent inhibition of human Factor 11 in HepB3 cells, electroporation (Example 7); type: cell-based; settings: for percent inhibition of human Factor 11 mRNA relative to untreated control cells: ~16 hours
How it was run: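 HepB3 cells (20,000 per well) were electroporated with gapmer at 41.15–10,000 nM. After about 16 h, Factor 11 mRNA was quantified by qRT-PCR (primer probe set RTS 2966) and normalized to RIBOGREEN total RNA. Percent inhibition relative to untreated cells.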

[4] = Tolerability in CD1 mice: organ weight (Example 33); type: in vivo; settings: 50 mg/kg s.c. twice a week, vs PBS control, normalized to body weight
Description: Three days after the last dose was administered to all groups, the mice were sacrificed.

[5] = set-up: species or system CD1 mice; settings: mouse, in vivo
How it was run: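 Mice sacrificed 3, 28 and 56 days after the last dose; liver full-length and total oligonucleotide measured after phenol-chloroform then solid-phase extraction with a 27-mer MOE phosphorothioate internal standard. Values in μg/g liver; half-lives calculated.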

[6] = vs saline control, normalized to body weight

416858 (antisense ACGGCATTGGTGCACAGTTT; 5-10-5 gapmer, further chemistry not given here) [compound 416858]
IC50 (human Factor 11 mRNA [1]): 11 nM
percent inhibition of human Factor 11 mRNA relative to untreated control cells (human Factor 11 mRNA [1]; 2.34 nM): 11%
percent inhibition of human Factor 11 mRNA relative to untreated control cells (human Factor 11 mRNA [1]; 4.69 nM): 35%
percent inhibition of human Factor 11 mRNA relative to untreated control cells (human Factor 11 mRNA [1]; 9.375 nM): 46%
percent inhibition of human Factor 11 mRNA relative to untreated control cells (human Factor 11 mRNA [1]; 18.75 nM): 61%
percent inhibition of human Factor 11 mRNA relative to untreated control cells (human Factor 11 mRNA [1]; 37.5 nM): 75%
percent inhibition of human Factor 11 mRNA relative to untreated control cells (human Factor 11 mRNA [1]; 75 nM): 77%
Inhibition of Factor 11 protein relative to the PBS control (percentage reduction) (Factor 11 protein; Day 10, plasma): 36%
Inhibition of Factor 11 protein relative to the PBS control (percentage reduction) (Factor 11 protein; Day 17, plasma): 49%
Inhibition of Factor 11 protein relative to the PBS control (percentage reduction) (Factor 11 protein; Day 24, plasma): 62%
Inhibition of Factor 11 protein relative to the PBS control (percentage reduction) (Factor 11 protein; Day 31, plasma): 68%
Inhibition of Factor 11 protein relative to the PBS control (percentage reduction) (Factor 11 protein; Day 38, plasma): 74%
Inhibition of Factor 11 protein relative to the PBS control (percentage reduction) (Factor 11 protein; Day 45, plasma): 79%
Inhibition of Factor 11 protein relative to the PBS control (percentage reduction) (Factor 11 protein; Day 52, plasma): 81%
Inhibition of Factor 11 protein relative to the PBS control (percentage reduction) (Factor 11 protein; Day 55, plasma): 81%
Inhibition of Factor 11 protein relative to the PBS control (percentage reduction) (Factor 11 protein; Day −5, plasma): 0%
Inhibition of Factor 11 protein relative to the PBS control (percentage reduction) (Factor 11 protein; Day −14, plasma): 4%
Percent change: Body weight ([2]; percent change over the weights at the start of the study): −21%
Percent change in organ weight: Kidney [2, 6]: +5%
Percent change in organ weight: Liver [2, 6]: +8%
Percent change in organ weight: Spleen [2, 6]: +187%
IC50 (human Factor 11 mRNA [3]): 300 nM
percent inhibition of human Factor 11 mRNA relative to untreated control cells (human Factor 11 mRNA [3]; 41.15 nM): 23%
percent inhibition of human Factor 11 mRNA relative to untreated control cells (human Factor 11 mRNA [3]; 123.457 nM): 45%
percent inhibition of human Factor 11 mRNA relative to untreated control cells (human Factor 11 mRNA [3]; 370.37 nM): 52%
percent inhibition of human Factor 11 mRNA relative to untreated control cells (human Factor 11 mRNA [3]; 1111.11 nM): 64%
percent inhibition of human Factor 11 mRNA relative to untreated control cells (human Factor 11 mRNA [3]; 3333.33 nM): 87%
percent inhibition of human Factor 11 mRNA relative to untreated control cells (human Factor 11 mRNA [3]; 10000 nM): 92%
Percent change in kidney weight ([4]; 2 weeks): +1%
Percent change in liver weight ([4]; 2 weeks): +7%
Percent change in spleen weight ([4]; 2 weeks): −2%
Percent change in kidney weight ([4]; 4 weeks): −18%
Percent change in liver weight ([4]; 4 weeks): +1%
Percent change in spleen weight ([4]; 4 weeks): +8%
Percent change in kidney weight ([4]; 6 weeks): −10%
Percent change in liver weight ([4]; 6 weeks): +10%
Percent change in spleen weight ([4]; 6 weeks): +28%
Half-Life in the liver [5]: 26 days
